This passage reports IC50 results from US20240158392A1 (Janssen Biotech, Inc., priority 2021, published 2024).

The target of this assay is SIK2 (Homo sapiens, UniProt Q9H0K1). The experiment in a line: SIK2 Enzymatic Assay High Version 2 (High ATP). The assay is classed as biochemical. Put shortly: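 At room temperature, enzyme (6 nM, 2× final) was preincubated with compound for 30 min, then 6 mM ATP and 400 μM HDAC5tide (both 2× final) were added for 2 h. ADP formed was measured by ADP-Glo Max (2 h reagent, 1 h detection) using luminescence.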

Where [1] appears, read: enzyme 6 nM, 6 mM ATP and 400 μM HDAC5tide (each 2× final concentration), 30 minutes pre-incubation, 2 hours, ADP-Glo Max luminescence, read-out: SIK2 high ATP IC50 (μM) (Test Example 2).

Read-outs that look alike come from different tables or passages of the source.

SIK2, sequence (Q9H0K1 whole entry, species assumed): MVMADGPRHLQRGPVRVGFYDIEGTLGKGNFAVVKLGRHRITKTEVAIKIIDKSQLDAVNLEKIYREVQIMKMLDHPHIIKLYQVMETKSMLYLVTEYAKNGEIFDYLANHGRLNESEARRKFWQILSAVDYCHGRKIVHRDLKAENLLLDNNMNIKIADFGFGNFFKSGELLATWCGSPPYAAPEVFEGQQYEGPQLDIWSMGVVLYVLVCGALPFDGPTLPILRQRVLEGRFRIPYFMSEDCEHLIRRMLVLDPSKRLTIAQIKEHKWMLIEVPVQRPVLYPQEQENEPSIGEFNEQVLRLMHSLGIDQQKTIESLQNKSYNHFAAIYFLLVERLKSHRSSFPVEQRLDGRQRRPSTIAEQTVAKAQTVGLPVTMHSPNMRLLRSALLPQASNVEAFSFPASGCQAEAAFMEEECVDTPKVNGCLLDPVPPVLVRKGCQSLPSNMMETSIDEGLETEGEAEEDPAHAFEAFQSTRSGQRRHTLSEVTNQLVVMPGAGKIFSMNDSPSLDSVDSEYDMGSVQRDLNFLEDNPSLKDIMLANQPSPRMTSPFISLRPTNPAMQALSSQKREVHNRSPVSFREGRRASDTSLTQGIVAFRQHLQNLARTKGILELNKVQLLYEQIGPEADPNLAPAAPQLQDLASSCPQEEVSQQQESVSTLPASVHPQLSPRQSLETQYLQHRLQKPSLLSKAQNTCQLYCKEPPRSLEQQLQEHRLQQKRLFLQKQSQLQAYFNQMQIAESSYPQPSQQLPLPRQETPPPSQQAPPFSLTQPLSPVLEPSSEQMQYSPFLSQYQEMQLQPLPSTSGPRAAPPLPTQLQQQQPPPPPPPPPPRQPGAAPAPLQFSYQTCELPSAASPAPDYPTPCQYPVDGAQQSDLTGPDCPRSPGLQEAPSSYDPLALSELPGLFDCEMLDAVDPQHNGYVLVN

What is called IC50 is the concentration that gives 50% inhibition. As to `Cc1cc(Nc2cc3cc(-c4cc(C(F)(F)F)ncc4OCC(C)(C)C#N)ccn3n2)nc(C)n1` [Example 494, 3-[[4-[2-[(2,6-dimethylpyrimidin-4-yl)amino]pyrazolo[1,5-a]pyridin-5-yl]-6-(trifluoromethyl)-3-pyridyl]oxy]-2,2-dimethyl-propanenitrile], the IC50 under setting [1] is 0.00254 µM.
With `Cc1cc(Nc2cc3cc(-c4cc(Cl)ncc4O[C@@H]4[C@@H]5CO[C@H]4CN5)ccn3n2)nc(C)n1` [Example 495, 5-[2-chloro-5-[[(1S,4S,7R)-2-oxa-5-azabicyclo[2.2.1]heptan-7-yl]oxy]-4-pyridyl]-N-(2,6-dimethylpyrimidin-4-yl)pyrazolo[1,5-a]pyridin-2-amine], the IC50 was 0.0134 µM.
Consider `COc1cc(-c2ccn3nc(Nc4cc(C)nc(C)n4)cc3c2)c(OC[C@@H]2CNCCO2)cn1` [Example 496, N-(2,6-dimethylpyrimidin-4-yl)-5-[2-methoxy-5-[[(2S)-morpholin-2-yl]methoxy]-4-pyridyl]pyrazolo[1,5-a]pyridin-2-amine], for which the half-maximal inhibitory concentration (IC50) under setting [1] was found to be 0.00143 µM.
In the case of `Cc1cc(Nc2cc3cc(-c4cc(Cl)ncc4OC[C@@H]4CNCCO4)ccn3n2)nc(C)n1` [Example 497, 5-[2-chloro-5-[[(2S)-morpholin-2-yl]methoxy]-4-pyridyl]-N-(2,6-dimethylpyrimidin-4-yl)pyrazolo[1,5-a]pyridin-2-amine], under setting [1], the 50% inhibitory concentration (IC50) stood at 0.0176 µM.
Consider `COc1cc(-c2ccn3nc(Nc4cc(C)nc(C)n4)cc3c2)c(OC[C@H]2OCC[C@@H]2O)cn1` [Example 498, (2R,3S)-2-[[4-[2-[(2,6-dimethylpyrimidin-4-yl)amino]pyrazolo[1,5-a]pyridin-5-yl]-6-methoxy-3-pyridyl]oxymethyl]tetrahydrofuran-3-ol], for which, under setting [1], the IC50 was 0.0414 µM.
The same measure, in the same setting: next, `Cc1cc(Nc2cc3cc(-c4cc(OCC(F)(F)F)ncc4OC[C@H]4OCC[C@@H]4O)ccn3n2)nc(C)n1` [Example 499, (2R,3S)-2-[[4-[2-[(2,6-dimethylpyrimidin-4-yl)amino]pyrazolo[1,5-a]pyridin-5-yl]-6-(2,2,2-trifluoroethoxy)-3-pyridyl]oxymethyl]tetrahydrofuran-3-ol]: 0.00352 µM; `Cc1cc(Nc2cc3cc(-c4cc(OCC#N)ncc4OC[C@H]4OCC[C@@H]4O)ccn3n2)nc(C)n1` [Example 500, 2-[[4-[2-[(2,6-dimethylpyrimidin-4-yl)amino]pyrazolo[1,5-a]pyridin-5-yl]-5-[[(2R,3S)-3-hydroxytetrahydrofuran-2-yl]methoxy]-2-pyridyl]oxy]acetonitrile]: 0.0454 µM.
Same read-out and setting: for `CNc1cc(-c2ccn3nc(Nc4cc(C)nc(C)n4)cc3c2)c(OC[C@@H]2CNCCO2)cn1` [Example 501, N-(2,6-dimethylpyrimidin-4-yl)-5-[2-(methylamino)-5-[[(2S)-morpholin-2-yl]methoxy]-4-pyridyl]pyrazolo[1,5-a]pyridin-2-amine] the value was 0.00172 µM; for `Cc1cc(Nc2cc3cc(-c4cc(OC(F)F)ncc4OC[C@@H]4CNCCO4)ccn3n2)nc(C)n1` [Example 502, 5-[2-(difluoromethoxy)-5-[[(2S)-morpholin-2-yl]methoxy]-4-pyridyl]-N-(2,6-dimethylpyrimidin-4-yl)pyrazolo[1,5-a]pyridin-2-amine], 0.00682 µM.
The same measure, in the same setting: for `Cc1cc(-c2ccc3nc(NC(=O)C4CC4)cn3c2)c(O[C@H]2CC[C@H](O)CC2)cn1` [Example 504, N-[6-[5-(4-hydroxycyclohexoxy)-2-methyl-4-pyridyl]imidazo[1,2-a]pyridin-2-yl]cyclopropanecarboxamide] the value was under 0.000847 µM.
In turn, `Cc1cc(-c2cn3cc(NC(=O)C4CC4)nc3cn2)c(O[C@H]2C[C@H]3COC[C@@H](C2)N3)cn1` [Example 505, N-[6-[2-methyl-5-[[(1S,5R)-3-oxa-9-azabicyclo[3.3.1]nonan-7-yl]oxy]-4-pyridyl]imidazo[1,2-a]pyrazin-2-yl]cyclopropanecarboxamide] came in with a 50% inhibitory concentration (IC50) of 0.012 µM.
Take `Cc1cc(-c2cn3cc(Nc4cc(C)nc(C)n4)nc3cn2)c(O[C@H]2CC[C@@H](O)CC2)cn1` [Example 506, 4-[[4-[2-[(2,6-dimethylpyrimidin-4-yl)amino]imidazo[1,2-a]pyrazin-6-yl]-6-methyl-3-pyridyl]oxy]cyclohexanol]: the half-maximal inhibitory concentration (IC50) under setting [1] is 0.0178 µM.
In the case of `Cc1cc(-c2cn3cc(Nc4cc(C)nc(C)n4)nc3cn2)c(O[C@H]2CC[C@H](O)CC2)cn1` [Example 507, 4-[[4-[2-[(2,6-dimethylpyrimidin-4-yl)amino]imidazo[1,2-a]pyrazin-6-yl]-6-methyl-3-pyridyl]oxy]cyclohexanol], the IC50 under setting [1] was found to be 0.0297 µM.
The same measure, in the same setting: for `Cc1cc(-c2ccn3nc(NC(=O)C4CC4)cc3c2)c(O[C@H]2CNC2(C)C)cn1` [Example 510, N-[5-[5-[(3S)-2,2-dimethylazetidin-3-yl]oxy-2-methyl-4-pyridyl]pyrazolo[1,5-a]pyridin-2-yl]cyclopropanecarboxamide] the value was 0.0614 µM.
On the same count and under the same terms, for `Cc1cc(-c2ccn3nc(Nc4cnn(C(C)C)c4)cc3c2)c(OC2CN(C)C2)cn1` [Example 511, N-(1-isopropylpyrazol-4-yl)-5-[2-methyl-5-(1-methylazetidin-3-yl)oxy-4-pyridyl]pyrazolo[1,5-a]pyridin-2-amine] the value was 0.0683 µM.
`Cc1cc(-c2ccn3nc(NC(=O)C4CC4)cc3c2)c(OC[C@@H]2CCN2C)cn1` [Example 512, N-[5-[2-methyl-5-[[(2S)-1-methylazetidin-2-yl]methoxy]-4-pyridyl]pyrazolo[1,5-a]pyridin-2-yl]cyclopropanecarboxamide] showed an IC50 of 0.0347 µM.
For `Cc1cc(-c2ccn3nc(Nc4cccnn4)cc3c2)c(OC[C@@H]2CN[C@H](C)CO2)cn1` [Example 513, 5-[2-methyl-5-[[(2S,5R)-5-methylmorpholin-2-yl]methoxy]-4-pyridyl]-N-pyridazin-3-yl-pyrazolo[1,5-a]pyridin-2-amine], the concentration for half-maximal inhibition (IC50) under setting [1] was determined as 0.0275 µM.
The molecule `Cc1cc(-c2ccn3nc(Nc4cccnn4)cc3c2)c(O[C@H]2C[C@H]3CC[C@@H](C2)N3C)cn1` [Example 514, 5-[2-methyl-5-[[(1S,5R)-8-methyl-8-azabicyclo[3.2.1]octan-3-yl]oxy]-4-pyridyl]-N-pyridazin-3-yl-pyrazolo[1,5-a]pyridin-2-amine] had an IC50 of 0.0303 µM.
As to `Cc1cc(-c2ccn3nc(Nc4cnccn4)cc3c2)c(OC[C@@H]2CN(C)CCO2)cn1` [Example 515, 5-[2-methyl-5-[[(2S)-4-methylmorpholin-2-yl]methoxy]-4-pyridyl]-N-pyrazin-2-yl-pyrazolo[1,5-a]pyridin-2-amine], the 50% inhibitory concentration (IC50) under setting [1] came to 0.000864 µM.
`Cc1cc(-c2ccn3nc(NC(=O)C4CC4)cc3c2)c(O[C@H]2C[C@@](C)(N)C2)cn1` [Example 517, N-[5-[5-(3-amino-3-methyl-cyclobutoxy)-2-methyl-4-pyridyl]pyrazolo[1,5-a]pyridin-2-yl]cyclopropanecarboxamide] gave an IC50 of 0.016 µM.
Consider `Cc1cc(-c2ccn3nc(Nc4cccnn4)cc3c2)c(OC[C@@H]2CNCC(C)(C)O2)cn1` [Example 518, 5-[5-[[(2S)-6,6-dimethylmorpholin-2-yl]methoxy]-2-methyl-4-pyridyl]-N-pyridazin-3-yl-pyrazolo[1,5-a]pyridin-2-amine], for which the IC50 under setting [1] amounted to 0.0559 µM.
The same measure, in the same setting: next, `Cc1cc(-c2ccn3nc(Nc4cccnn4)cc3c2)c(O[C@H]2C[C@H](N)C2)cn1` [Example 520, 5-[5-(3-aminocyclobutoxy)-2-methyl-4-pyridyl]-N-pyridazin-3-yl-pyrazolo[1,5-a]pyridin-2-amine]: 0.0445 µM.
On to `Cc1cc(-c2ccn3nc(Nc4cc(C)nc(C)n4)cc3c2)c(OC[C@@H]2CCN2C)cn1` [Example 521, N-(2,6-dimethylpyrimidin-4-yl)-5-[2-methyl-5-[[(2S)-1-methylazetidin-2-yl]methoxy]-4-pyridyl]pyrazolo[1,5-a]pyridin-2-amine], for which 0.0607 µM corresponded to half-maximal inhibition (IC50).
As to `Cc1cc(-c2ccn3nc(Nc4ccc(C)nn4)cc3c2)c(O[C@@H]2[C@@H]3CO[C@H]2CN3)cn1` [Example 523, 5-[2-methyl-5-[[(1S,4S,7R)-2-oxa-5-azabicyclo[2.2.1]heptan-7-yl]oxy]-4-pyridyl]-N-(6-methylpyridazin-3-yl)pyrazolo[1,5-a]pyridin-2-amine], the IC50 was determined as 0.00462 µM.
The molecule `Cc1cc(-c2ccn3nc(Nc4cc(C)nc(C)n4)cc3c2)c(O[C@@H]2[C@@H]3CO[C@H]2CN3)cn1` [Example 524, N-(2,6-dimethylpyrimidin-4-yl)-5-[2-methyl-5-[[(1S,4S,7R)-2-oxa-5-azabicyclo[2.2.1]heptan-7-yl]oxy]-4-pyridyl]pyrazolo[1,5-a]pyridin-2-amine] displayed an IC50 of 0.0203 µM.
Same read-out and setting: for `Cc1cc(-c2ccn3nc(Nc4ccc(C5CC5)nn4)cc3c2)c(O[C@@H]2[C@@H]3CO[C@H]2CN3)cn1` [Example 525, N-(6-cyclopropylpyridazin-3-yl)-5-[2-methyl-5-[[(1S,4S,7R)-2-oxa-5-azabicyclo[2.2.1]heptan-7-yl]oxy]-4-pyridyl]pyrazolo[1,5-a]pyridin-2-amine] the value was 0.0594 µM.
Same read-out and setting: for `Cc1cc(-c2ccn3nc(NC(=O)C4CC4)cc3c2)c(OC[C@@H]2CCN2)cn1` [Example 526, N-[5-[5-[[(2S)-azetidin-2-yl]methoxy]-2-methyl-4-pyridyl]pyrazolo[1,5-a]pyridin-2-yl]cyclopropanecarboxamide] the value was 0.0198 µM.
On to `Cc1cc(-c2ccn3nc(Nc4cc(C)nc(C)n4)cc3c2)c(OC[C@H]2CCN2C)cn1` [Example 527, N-(2,6-dimethylpyrimidin-4-yl)-5-[2-methyl-5-[[(2R)-1-methylazetidin-2-yl]methoxy]-4-pyridyl]pyrazolo[1,5-a]pyridin-2-amine], for which the IC50 is 0.0081 µM.
Molecule `Cc1cnc(Nc2cc3cc(-c4cc(C)ncc4O[C@@H]4[C@@H]5CO[C@H]4CN5)ccn3n2)cn1` [Example 528, 5-[2-methyl-5-[[(1S,4S,7R)-2-oxa-5-azabicyclo[2.2.1]heptan-7-yl]oxy]-4-pyridyl]-N-(5-methylpyrazin-2-yl)pyrazolo[1,5-a]pyridin-2-amine] came in with a 50% inhibitory concentration (IC50) of 0.0642 µM.
